ChEMBL document CHEMBL1159280, “Idiospermuline, a trimeric pyrrolidinoindoline alkaloid from the seed of Idiospermum australiense” (1995)
Calls of active or inactive are those of the source. The rule behind the calls is not given here.

What was measured:
Format in all cases: functional
Rattus norvegicus [1] = organism: Rattus norvegicus; assay: Effect on neurochemical transmission in Sprague-Dawley rat cortical wedge assessed as hyperpolarization activity at 50 to 500 uM
[2] = Reduction of acetylcholine-induced depolarizing response in Sprague-Dawley rat cortical wedge at 50 uM relative to control; parameters: scale not given: the % may be the effect or the level left
[3] = Reduction of acetylcholine-induced depolarizing response in Sprague-Dawley rat cortical wedge at 10 uM relative to control; parameters: scale not given: the % may be the effect or the level left
Rattus norvegicus [4] = organism: Rattus norvegicus; assay: Effect on neurochemical transmission in Sprague-Dawley rat cortical wedge assessed as hyperpolarization activity at 10 to 100 uM

Compound | Activity (Rattus norvegicus [1]) | Activity [2] | Activity [3] | Activity (Rattus norvegicus [4])
CN1CC[C@]23c4ccccc4N[C@H]1[C@]21CCN(C)[C@H]3Nc2ccccc21 [CALYCANTHINE] | Active | 20.4% | – | –
CN1CC[C@]2([C@]34CCN(C)[C@H]3Nc3ccccc34)c3ccccc3N[C@H]12 [CHIMONANTHINE] | – | – | 58.3% | Active
CN1CC[C@@]2(c3cccc4c3N[C@H]3N(C)CC[C@@]43[C@@]34CCN(C)[C@@H]3N(C)c3ccccc34)c3ccccc3N(C)[C@@H]12 [IDIOSPERMULINE] | – | – | 61.2% | Active
